Laboratory results taken from US9181258B2, “Substituted 3,4-dihydropyrrolo[1,2-a]pyrazin-1(2H)-ones as protein kinase inhibitors” (NERVIANO MEDICAL SCIENCES S.R.L., priority 2011, dated 2015).
Structures can show the parent of a compound that is named as a salt.

Experiments:
human PIM2 = human PIM2 (Homo sapiens (Human), UniProt Q9P1W9); assay: PIM2 kinase inhibition assay: Dowex technique; assay type: biochemical; conditions: ATP 4 μM, Aktide 5 μM, enzyme 1.5 nM; read-out: PIM-2 IC50
Method: Method for PIM2 Kinase Inhibition Assay: Dowex Technique
The buffer for PIM2 assay was composed of HEPES 50 mM, at pH 7.5, with 1 mM MgCl2, 1 mM DTT, 3 μM Na3VO4, and 0.2 mg/mL BSA.
Full-length human PIM2 was expressed and purified as described in Fedorov O, et al., PNAS 2007 104, 51, 20523-28. ii. Assay Conditions (Final Concentrations)
Enzyme concentration=1.5 nM; ATP=4 μM; ^33P-γ-ATP=1 nM
Aktide substrate (Chemical Abstract Service Registry Number 324029-01-8)=5 μM iii. Robotized Dowex Assay
See above: same procedure as described for PIM1.

human PIM1 = human PIM1 (Homo sapiens (Human), UniProt P11309); assay: Biochemical assay for inhibitors of PIM1 kinase activity (trans-phosphorylation, Dowex technique); conditions: ATP 200 μM, Aktide 25 μM, enzyme 1 nM; read-out: PIM-1 IC50
Chain of human PIM1 (P11309 whole entry): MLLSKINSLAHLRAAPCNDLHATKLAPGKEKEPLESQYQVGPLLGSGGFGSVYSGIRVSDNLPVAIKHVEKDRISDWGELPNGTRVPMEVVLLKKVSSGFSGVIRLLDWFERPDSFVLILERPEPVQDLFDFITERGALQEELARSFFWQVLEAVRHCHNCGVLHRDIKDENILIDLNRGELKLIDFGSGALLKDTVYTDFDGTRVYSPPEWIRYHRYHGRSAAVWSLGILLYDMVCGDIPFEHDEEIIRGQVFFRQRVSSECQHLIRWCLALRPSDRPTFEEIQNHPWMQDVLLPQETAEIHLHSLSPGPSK
Method: Biochemical Assay for Inhibitors of PIM1 Kinase Activity
The inhibitory activity of putative kinase inhibitors and the potency of selected compounds were determined using a trans-phosphorylation assay.
Specific peptide or protein substrates were trans-phosphorylated by their specific ser-thr or tyr kinase in the presence of ATP traced with ^33P-γ-ATP, and in the presence of their own optimal buffer and cofactors.
At the end of the phosphorylation reaction, more than 98% unlabeled ATP and radioactive ATP were captured by an excess of the ion exchange dowex resin; the resin then settled down to the bottom of the reaction plate by gravity. Supernatant was subsequently withdrawn and transferred into a counting plate, then evaluated by β-counting.
Reagents/Assay Conditions i. Dowex Resin Preparation
500 g of wet resin (SIGMA, custom prepared resin DOWEX 1×8 200-400 mesh, 2.5 Kg) were weighed out and diluted to 2 L in 150 mM sodium formate, pH 3.00.
The resin was allowed to settle down (some hours) and then the supernatant was discarded.
After three washes as above over a couple of days, the resin was allowed to settle and two volumes (wrt the resin volume) of 150 mM sodium formate buffer were added.
The pH was then measured and should have been around 3.00.
The washed resin was stable for more than one week; the stock resin was kept at 4° C. before use.
The buffer for PIM1 assay was composed of HEPES 50 mM, at pH 7.5, with 10 mM MgCl2, 1 mM DTT, 3 μM NaVO3, and 0.2 mg/mL BSA.
Full-length human PIM1 was expressed and purified as described in Bullock A N, et al., J. Biol. Chem. 2005, 280, 41675-82.
1.7 μM PIM1 was incubated 1 h at 28° C. in the presence of 125 μM ATP.
ATP concentration: 200 μM; ^33P-γ-ATP: 6 nM; Enzyme concentration: 1 nM Substrate concentration Aktide (Chemical Abstract Service Registry Number 324029-01-8): 25 μM iv. Robotized Dowex Assay
The test mix consisted of:
1) 3× Enzyme mix (done in Kinase Buffer 3×), 5 μL/well
2) 3× substrate and ATP mix (done in ddH2O), together with ^33P-γ-ATP, 5 μL/well 3) 3× test compounds (diluted into ddH2O—3% DMSO)—5 μL/well See below for compound dilution and assay scheme […]
An automated station (Biomek FX, Beckman) was used for serial dilutions, producing 1:3 dilutions in 100% DMSO, from line A1 to A10, for all the compounds in the column.
Data were analyzed by an internally customized version of the “Assay Explorer” SW package, which provided sigmoidal fitting of the ten-dilution curves for IC50 determination in secondary assay/hit confirmation routines.

BaF3-PIM1 cells = assay: In vitro cell proliferation assay (CellTiter-Glo), BaF3-PIM1; assay type: cell-based; conditions: 72 hours
Method: (§1) In Vitro Cell Proliferation Assay
(§2) BaF3-PIM1 and MV-4-11 cells were seeded at 125 cells/well and 1250 cells/well respectively in a 384-well white plates in complete medium and treated with compounds dissolved in 0.1% DMSO, 24 h after seeding.
(§3) The cells were incubated at 37° C. and 5% CO2 and after 72 hours the plates were processed using CellTiter-Glo assay (Promega) following the manufacturer's instruction.
(§4) CellTiter-Glo was a homogenous method based on the quantification of the ATP present, an indicator of metabolitically active cells. ATP was quantified using a system based on luciferase and D-luciferin resulting into light generation. The luminescent signal was proportional to the number of cells present in culture.
(§5) Briefly 25 μl/well reagent solution were added to each wells and after 5 minutes shacking microplates were red by Envision (PerkinElmer) luminometer. The luminescent signal was proportional to the number of cells present in culture.
(§6) Inhibitory activity was evaluated comparing treated versus control data using Assay Explorer (MDL) program. IC50 was calculated using sigmoidal interpolation curve.

MV-4-11 cells = assay: In vitro cell proliferation assay (CellTiter-Glo), MV-4-11; assay type: cell-based; conditions: Homo sapiens, MV4-11, 72 hours
Method: as §1
MV-4-11 (biphenotypic B myelomonocytic leukemia) cell line was obtained from ATCC.
Media for MV-4-11 cell line contained RPMI 1640 or EMEM plus 2 mM Glutamine and 10% Fetal bovine serum.
as §2, §3, §4, §5, §6

Chain of human PIM2 (Q9P1W9 whole entry): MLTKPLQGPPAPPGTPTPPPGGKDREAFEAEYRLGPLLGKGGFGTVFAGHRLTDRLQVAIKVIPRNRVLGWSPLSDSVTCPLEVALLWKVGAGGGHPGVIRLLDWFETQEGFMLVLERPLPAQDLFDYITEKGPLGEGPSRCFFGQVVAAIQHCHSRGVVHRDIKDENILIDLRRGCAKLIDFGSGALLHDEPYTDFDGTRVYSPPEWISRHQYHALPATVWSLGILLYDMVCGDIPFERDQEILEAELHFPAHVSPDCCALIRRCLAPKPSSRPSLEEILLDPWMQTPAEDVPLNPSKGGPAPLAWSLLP

Compound	IC50 (human PIM2) [µM]	IC50 (human PIM1) [µM]	IC50 (BaF3-PIM1 cells) [µM]	IC50 (MV-4-11 cells) [µM]
NCCC1CNC(=O)c2cc(-c3cccc(OC(F)(F)F)c3)c(-c3ccccc3)n21 (centres unmarked) [Compound 28, 4-(2-aminoethyl)-6-phenyl-7-[3-(trifluoromethoxy)phenyl]-3,4-dihydropyrrolo[1,2-a]pyrazin-1(2H)-one hydrochloride]	0.055	0.007	0.275	1.74
NCCC1CNC(=O)c2cc(-c3cccc(OC(F)(F)F)c3)c(-c3ccsc3)n21 (centres unmarked) [Compound 29, 4-(2-aminoethyl)-6-(thiophen-3-yl)-7-[3-(trifluoromethoxy)phenyl]-3,4-dihydropyrrolo[1,2-a]pyrazin-1(2H)-one hydrochloride]	0.143	0.019	0.315	2.62
NCCC1CNC(=O)c2cc(-c3cccc(C(F)(F)F)c3)c(-c3ccsc3)n21 (centres unmarked) [Compound 40, 4-(2-aminoethyl)-6-(thiophen-3-yl)-7-[3-(trifluoromethyl)phenyl]-3,4-dihydropyrrolo[1,2-a]pyrazin-1(2H)-one hydrochloride]	0.155	0.043	0.34	5.04
Cc1cccc(-c2c(-c3ccnc(Cl)c3)cc3n2C(CCN)CNC3=O)c1 (centres unmarked) [Compound 45, 4-(2-aminoethyl)-7-(2-chloropyridin-4-yl)-6-(3-methylphenyl)-3,4-dihydropyrrolo[1,2-a]pyrazin-1(2H)-one hydrochloride]	0.102	0.041	3.96	3.17
Cc1cccc(-c2c(-c3cc(Cl)ccc3F)cc3n2C(CCN)CNC3=O)c1 (centres unmarked) [Compound 59, 4-(2-aminoethyl)-7-(5-chloro-2-fluorophenyl)-6-(3-methylphenyl)-3,4-dihydropyrrolo[1,2-a]pyrazin-1(2H)-one hydrochloride]	0.114	0.04	0.323	4.62
CN(C)Cc1ccc(-c2c(-c3cccc(OC(F)(F)F)c3)cc3n2C(CCCl)CNC3=O)cc1 (centres unmarked) [Compound 70, 4-(2-chloroethyl)-6-{4-[(dimethylamino)methyl]phenyl}-7-[3-(trifluoromethoxy)phenyl]-3,4-dihydropyrrolo[1,2-a]pyrazin-1(2H)-one trifluoroacetate]	0.113	0.016	0.418	1.5
CC(C)[C@H]1CNC(=O)c2cc(-c3cccc(OC(F)(F)F)c3)c(-c3ccc(CN)cc3)n21 [Compound 138, (4S)-6-[4-(aminomethyl)phenyl]-4-(propan-2-yl)-7-[3-(trifluoromethoxy)phenyl]-3,4-dihydropyrrolo[1,2-a]pyrazin-1(2H)-one]	0.173	0.012	0.276	–
Cc1cccc(-c2c(-c3cccc(OC(F)(F)F)c3)cc3n2[C@@H](CCNC(=N)N)CNC3=O)c1 [Compound 148, 1-(2-{(4S)-6-(3-methylphenyl)-1-oxo-7-[3-(trifluoromethoxy)phenyl]-1,2,3,4-tetrahydropyrrolo[1,2-a]pyrazin-4-yl}ethyl)guanidine hydrochloride]	0.012	0.008	0.11	–

Continued by falling IC50 (human PIM2), values first:

IC50 (human PIM2) [µM]	IC50 (human PIM1) [µM]	IC50 (BaF3-PIM1 cells) [µM]	IC50 (MV-4-11 cells) [µM]	Compound
0.077	0.017	0.14	3.6	NCCC1CNC(=O)c2cc(-c3cc(Cl)ccc3F)c(-c3ccsc3)n21 (centres unmarked) [Compound 55, 4-(2-aminoethyl)-7-(5-chloro-2-fluorophenyl)-6-(thiophen-3-yl)-3,4-dihydropyrrolo[1,2-a]pyrazin-1(2H)-one hydrochloride]
0.051	0.023	0.326	2.59	Cc1cccc(-c2c(-c3cccc(OC(F)(F)F)c3)cc3n2C(CCN)CNC3=O)c1 (centres unmarked) [Compound 31, 4-(2-aminoethyl)-6-(3-methylphenyl)-7-[3-(trifluoromethoxy)phenyl]-3,4-dihydropyrrolo[1,2-a]pyrazin-1(2H)-one hydrochloride]
0.044	0.014	0.273	3.14	CN1CCN(Cc2ccc(-c3c(-c4cccc(OC(F)(F)F)c4)cc4n3C(CCCl)CNC4=O)cc2)CC1 (centres unmarked) [Compound 71, 4-(2-chloroethyl)-6-{4-[(4-methylpiperazin-1-yl)methyl]phenyl}-7-[3-(trifluoromethoxy)phenyl]-3,4-dihydropyrrolo[1,2-a]pyrazin-1(2H)-one trifluoroacetate]
0.036	0.023	0.053	–	COc1ccc(-c2c(-c3cccc(OC(F)(F)F)c3)cc3n2[C@@H](CCN)CNC3=O)cc1F [Compound 113, (4S)-4-(2-aminoethyl)-6-(3-fluoro-4-methoxyphenyl)-7-[3-(trifluoromethoxy)phenyl]-3,4-dihydropyrrolo[1,2-a]pyrazin-1(2H)-one hydrochloride]
0.035	0.001	0.486	5.96	CN1CCN(Cc2ccc(-c3c(-c4cccc(OC(F)(F)F)c4)cc4n3C(CCO)CNC4=O)cc2)CC1 (centres unmarked) [Compound 82, 4-(2-hydroxyethyl)-6-{4-[(4-methylpiperazin-1-yl)methyl]phenyl}-7-[3-(trifluoromethoxy)phenyl]-3,4-dihydropyrrolo[1,2-a]pyrazin-1(2H)-one trifluoroacetate]
0.032	0.016	0.239	2.6	NCCC1CNC(=O)c2cc(-c3cc(Cl)ccc3F)c(-c3ccccc3)n21 (centres unmarked) [Compound 57, 4-(2-aminoethyl)-7-(5-chloro-2-fluorophenyl)-6-phenyl-3,4-dihydropyrrolo[1,2-a]pyrazin-1(2H)-one hydrochloride]
0.019	0.008	1.77	–	CS(=O)(=O)c1ccc(-c2c(-c3cccc(OC(F)(F)F)c3)cc3n2[C@@H](CCNC(=N)N)CNC3=O)cc1 [Compound 149, 1-(2-{(4S)-6-[4-(methylsulfonyl)phenyl]-1-oxo-7-[3-(trifluoromethoxy)phenyl]-1,2,3,4-tetrahydropyrrolo[1,2-a]pyrazin-4-yl}ethyl)guanidine hydrochloride]
0.013	0.001	6.45	–	CN1CCN(Cc2ccc(-c3c(-c4cccc(OC(F)(F)F)c4)cc4n3[C@@H](CCCN)CNC4=O)cc2)CC1 [Compound 135, (4S)-4-(3-aminopropyl)-6-{4-[(4-methylpiperazin-1-yl)methyl]phenyl}-7-[3-(trifluoromethoxy)phenyl]-3,4-dihydropyrrolo[1,2-a]pyrazin-1(2H)-one dihydrochloride]
0.003	0.001	0.15	–	NCC[C@H]1CNC(=O)c2cc(-c3cccc(OC(F)(F)F)c3)c(-c3ccc(C4(N)CC4)cc3)n21 [Compound 130, (4S)-6-[4-(1-aminocyclopropyl)phenyl]-4-(2-aminoethyl)-7-[3-(trifluoromethoxy)phenyl]-3,4-dihydropyrrolo[1,2-a]pyrazin-1(2H)-one hydrochloride]
